We go through five compounds from patent publication US6358921B1, “Antimicrobial peptide compositions and method” (priority 1996, dated 2002).

The test system of series [1] is P. aeruginosa H187. The format is cell-based, Pseudomonas aeruginosa. Conditions: P. aeruginosa H187; unit from Table 10. In short, it runs like this:
(§1)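 Liquid-broth microdilution: overnight LB cultures at 37 °C, diluted to a final inoculum of 5×10^5 CFU/mL with serial peptide dilutions, incubated overnight at 37 °C. MIC (μg/ml) is the lowest concentration that inhibited growth. Therapeutic index is the concentration giving complete hemolysis at 4 h divided by the MIC.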

The test system of series [2] is P. aeruginosa H188. The series is classed as cell-based, Pseudomonas aeruginosa. Conditions: P. aeruginosa H188; unit from Table 10. In short, it runs like this: (§2)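 Antimicrobial activity is measured by a liquid-broth assay in LB at 37 °C overnight, starting from 5×10^5 CFU/mL. Values are minimal inhibitory concentrations, i.e. the lowest concentration that stops growth.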

Series [3] relates to E. coli UB1005. The series is classed as cell-based, Escherichia coli. Conditions: E. coli UB1005; unit from Table 10. In short, it runs like this:
as §2

Series [4] deals with E. coli DC2. The format is cell-based, Escherichia coli. The settings on record: E. coli DC2; unit from Table 10. In short, it runs like this: as §1
In series [5] the test system is E. coli SC9251. Briefly: MIC, liquid-broth microtitre dilution. The settings on record: unit from Table 10. The format is cell-based, Escherichia coli. An excerpt: (§3) The following bacterial strains were utilized: Escherichia coli UB1005 (wt) and its antibiotic supersusceptible derivative DC2 (Clark, 1984); Excherichia coli SC9251 and its polymixin B rasistant mutant pmrA SC9252 (Peterson, et al., 1987) Pseudomonas aeruginosa H187 (wt) (Angus, et al., 1987) and its antibiotic-sensitive derivative H188 (Zimmerman, W, Antimicrob. Agents Chemother. 18: 94-100, 1980); methicillin sensitive Staphylococcus aureus K147 (Kreiswirth, et al., 1983); Staphylococcus aureus SAP0017, a methicillin resistant clinical isolate from Dr. A. Chow (University of British Columia); Bacillus subtilis, an environmental wt lab strain. Enterococcus faecalis are ATCC 29212 cells and Staphylococcus epidermidis was a clinical isolate from Dr. D. Speert (University of British Columbia). Antifungal activity was tested using a clinical lab isolate of Candida albicans. Salmonella typhinurium C57 and C610 (Fields, P.I., et al., Science 243: 1059-1062 (1989) Corynebacterium xerosis was an environmental isolate (University of British Columbia).
(§4) It is now apparent that agar-based assays severely underestimate antifungal activity as well as activity against gram negative microorganisms (Kondejewski, et al., 1996). Consequently, in the studies reported herein, a liquid-broth method was used to measure the antibiotic properties of the peptides. […] Briefly, cells were grown overnight at 37° C. in LB and diluted in the same medium. Serial dilutions of antibiotics were added to the microtitre plates in a volume of 100 μL followed by 10 μL of bacteria to give a final inoculum of 5×10^5 CFU/mL. Plates were incubated at 37° C. overnight and MICs determined as the lowest antibiotic concentration that inhibited growth.

Series [6] has as its system E. coli SC9252. Briefly: MIC, liquid-broth microtitre dilution. The format is cell-based, Escherichia coli. The settings on record: unit from Table 10.
Source text: as §3, §4

In series [7] the test system is human erythrocytes. Briefly: Hemolytic activity. The format is cell-based. On the procedure:
Serial dilutions of the peptides in saline were prepared in round bottom microtitre plates using 100 μL volumes. Red blood cells were diluted with saline to 1/25 packed volume of cells and 50 μL added to each well. Plates were incubated with rocking at 37° C., and the concentration required for complete lysis determined visually after 4 h.

A short description of series [8]: Displacement of dansyl-polymyxin from LPS. The format is binding, P. aeruginosa. The settings on record: for pIC50: Table 10, read-out: LPS binding activity: peptide concentration to displace 50% of dansyl-polymyxin from LPS. In short, it runs like this:
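Peptides titrated into 3 μg/mL P. aeruginosa LPS with 2.5 μM dansyl-polymyxin (~90% site saturation) in 5 mM sodium HEPES, pH 7.0; fluorescence decrease recorded. I50 (50% probe displacement) taken from the x-intercept of a double-reciprocal plot of percent inhibition versus inhibitor concentration.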

The subject of series [9] is gram negative microorganisms. The series is classed as cell-based. Conditions: average activity calculated from Table II.
Source text: as §3, §4
(§5) The results from antimicrobial and hemolytic assays are combined to provide a “Therapeutic Index” (TI) for each peptide with respect to individual microorganisms. As reported herein, the TI is calculated as the hemolytic activity divided by the antimicrobial activity. The TI thus is a measure of specificity of the particular peptide for microbial membranes as opposed to human blood cell membranes. In the present studies, antimicrobial activities are reported as minimum inhibitory concentrations (MIC)—the lowest concentration of peptide (μg/ml) found to inhibit growth of the particular microbe. Hemolytic activity is reported as the concentration of peptide that effected complete lysis of blood cells after four hours. Thus, in the context of the present invention high TI values indicate microbial specificity and relative lack of toxicity.

The subject of series [10] is gram positive microorganisms. The series is classed as cell-based. The settings on record: average activity calculated from Table II.
Source text: as §3, §4, §5

Series [11] relates to yeast. The series can be described thus: Antibiotic activity, yeast. Conditions: average activity calculated from Table II. The format is cell-based.
Source text: as §3, §4, §5

pIC50: −log10 of the molar value. Where a SMILES comes first, the peptide text is derived from it. [ ]: non-standard residue; d: D form. Orn = NCCC[C@H](N)C(=O)O

As for `CC(C)C[C@@H]1NC(=O)[C@H](CCCN)NC(=O)[C@H](C(C)C)NC(=O)[C@@H]2CCCN2C(=O)[C@@H](Cc2ccccc2)NC(=O)[C@H](CC(C)C)NC(=O)[C@H](CCCN)NC(=O)[C@H](C(C)C)NC(=O)[C@H](CCCN)NC(=O)[C@@H]2CCCN2C(=O)[C@@H](Cc2ccccc2)NC(=O)[C@H](CCCN)NC1=O` [GS12FO, FPVOLOFPOVOL] (cyclo(L[Orn][dF]P[Orn]V[Orn]L[dF]PV[Orn])), the “Antibiotic activity (Table 11, ring analogs)” value in series [1] was 50 μg/ml; in series [2] it was 5 μg/ml; in [3] it was 22 μg/ml; in series [4], 5 μg/ml; in series [5] it was 6 μg/ml; in series [6] it was 9 μg/ml. The same compound registered a Hemolytic activity in [7] of 160 µg/mL. Besides, the pIC50 in [8] was 3.98. Also, the “Antibiotic activity, gram-negative” value in series [9] was 16 µg/mL. Also, the “Antibiotic activity, gram-positive” value in series [10] is 120 µg/mL. In addition, the “Antibiotic activity, yeast” value in series [11] is 16 µg/mL.
Regarding `CC(C)C[C@@H]1NC(=O)[C@H](CCCN)NC(=O)[C@H](CC(C)C)NC(=O)[C@@H]2CCCN2C(=O)[C@@H](Cc2ccccc2)NC(=O)[C@H](CC(C)C)NC(=O)[C@H](CCCN)NC(=O)[C@H](CC(C)C)NC(=O)[C@H](CCCN)NC(=O)[C@@H]2CCCN2C(=O)[C@@H](Cc2ccccc2)NC(=O)[C@H](CCCN)NC1=O` [GS12FO/LL, FPLOLOFPOLOL] (cyclo(L[Orn]L[Orn][dF]P[Orn]L[Orn]L[dF]P)), the “Antibiotic activity (Table 11, ring analogs)” value in series [1] came to 63 μg/ml; in series [2], 8 μg/ml; in series [3] it was 16 μg/ml; in series [4], 5 μg/ml; in series [5], 8 μg/ml; in [6], 9 μg/ml. Further, in series [7], the Hemolytic activity was found to be 170 µg/mL. Besides, in [8], the pIC50 is 4.36. Also, the “Antibiotic activity, gram-negative” value in series [9] is 18 µg/mL. Also, in series [10], the “Antibiotic activity, gram-positive” value was 42 µg/mL. Also, the “Antibiotic activity, yeast” value in series [11] is 16 µg/mL.
In the case of `CC(C)C[C@@H]1NC(=O)[C@H](CCCCN)NC(=O)[C@H](C(C)C)NC(=O)[C@@H]2CCCN2C(=O)[C@@H](Cc2ccccc2)NC(=O)[C@H](CC(C)C)NC(=O)[C@H](CCCCN)NC(=O)[C@H](C(C)C)NC(=O)[C@H](CCCCN)NC(=O)[C@@H]2CCCN2C(=O)[C@@H](Cc2ccccc2)NC(=O)[C@H](CCCCN)NC1=O` [GS12F], the “Antibiotic activity (Table 11, ring analogs)” value in series [1] turned out to be 38 μg/ml; in [2], 8 μg/ml; in series [3] it was 17 μg/ml; in series [4], 9 μg/ml; in [5] it was 11 μg/ml; in [6], 14 μg/ml. The compound also showed a Hemolytic activity in series [7] of 400 µg/mL. Further, the pIC50 in series [8] is 3.90. Further, the “Antibiotic activity, gram-negative” value in series [9] is 16 µg/mL. The “Antibiotic activity, gram-positive” value in series [10] was 110 µg/mL. Besides, the “Antibiotic activity, yeast” value in series [11] is 13 µg/mL.
As to `CC(C)C[C@@H]1NC(=O)[C@H](CCCCN)NC(=O)[C@@H]2CCCN2C(=O)[C@@H](Cc2ccc(O)cc2)NC(=O)[C@H](CCCCN)NC(=O)[C@H](C(C)C)NC(=O)[C@H](CCCCN)NC(=O)[C@H](CC(C)C)NC(=O)[C@@H]2CCCN2C(=O)[C@@H](Cc2ccc(O)cc2)NC(=O)[C@H](C(C)C)NC(=O)[C@H](CCCCN)NC1=O` [GS12LV], the “Antibiotic activity (Table 11, ring analogs)” value was 58 μg/ml in series [1]; 10 μg/ml in series [2]; 21 μg/ml in [3]; 14 μg/ml in [4]; 22 μg/ml in series [5]; 25 μg/ml in [6]. Moreover, the Hemolytic activity in series [7] was 92 µg/mL. In series [8], the pIC50 is 4.48. For the same compound, the “Antibiotic activity, gram-negative” value in [9] is 25 µg/mL. In addition, in [10], the “Antibiotic activity, gram-positive” value is 240 µg/mL. Further, in [11], the “Antibiotic activity, yeast” value was 50 µg/mL.
Regarding `CC(C)C[C@@H]1NC(=O)[C@H](CCCCN)NC(=O)[C@H](C(C)C)NC(=O)[C@@H]2CCCN2C(=O)[C@@H](Cc2ccc(O)cc2)NC(=O)[C@H](CC(C)C)NC(=O)[C@H](CCCCN)NC(=O)[C@H](C(C)C)NC(=O)[C@H](CCCCN)NC(=O)[C@@H]2CCCN2C(=O)[C@@H](Cc2ccc(O)cc2)NC(=O)[C@H](CCCCN)NC1=O` [GS12], the “Antibiotic activity (Table 11, ring analogs)” value was 75 μg/ml in series [1]; 10 μg/ml in [2]; 25 μg/ml in series [3]; 11 μg/ml in series [4]; 42 μg/ml in [5]; 30 μg/ml in [6]. Moreover, the Hemolytic activity in [7] came to 250 µg/mL. The pIC50 in series [8] is 4.34. Also, in series [8] (addition of two positive charges), the “Increase in LPS binding activity in comparison to shorter peptides” value is reported as “approximately 6 fold”. Also, the “Antibiotic activity, gram-negative” value in [9] was 32 µg/mL. Moreover, the “Antibiotic activity, gram-positive” value in series [10] is 240 µg/mL. Also, the “Antibiotic activity, yeast” value in series [11] is 42 µg/mL.
